The target of this assay is human TRPM8 (Homo sapiens (Human), UniProt Q7Z2W7). In words: HTS cellular-based calcium assay for human TRPM8 antagonists (FLIPR TETRA). Particulars: HEK293/hTRPM8 cells, agonist Cooling Agent 10 at EC80, Ca2+ fluorescence.
human TRPM8, sequence (Q7Z2W7 whole entry): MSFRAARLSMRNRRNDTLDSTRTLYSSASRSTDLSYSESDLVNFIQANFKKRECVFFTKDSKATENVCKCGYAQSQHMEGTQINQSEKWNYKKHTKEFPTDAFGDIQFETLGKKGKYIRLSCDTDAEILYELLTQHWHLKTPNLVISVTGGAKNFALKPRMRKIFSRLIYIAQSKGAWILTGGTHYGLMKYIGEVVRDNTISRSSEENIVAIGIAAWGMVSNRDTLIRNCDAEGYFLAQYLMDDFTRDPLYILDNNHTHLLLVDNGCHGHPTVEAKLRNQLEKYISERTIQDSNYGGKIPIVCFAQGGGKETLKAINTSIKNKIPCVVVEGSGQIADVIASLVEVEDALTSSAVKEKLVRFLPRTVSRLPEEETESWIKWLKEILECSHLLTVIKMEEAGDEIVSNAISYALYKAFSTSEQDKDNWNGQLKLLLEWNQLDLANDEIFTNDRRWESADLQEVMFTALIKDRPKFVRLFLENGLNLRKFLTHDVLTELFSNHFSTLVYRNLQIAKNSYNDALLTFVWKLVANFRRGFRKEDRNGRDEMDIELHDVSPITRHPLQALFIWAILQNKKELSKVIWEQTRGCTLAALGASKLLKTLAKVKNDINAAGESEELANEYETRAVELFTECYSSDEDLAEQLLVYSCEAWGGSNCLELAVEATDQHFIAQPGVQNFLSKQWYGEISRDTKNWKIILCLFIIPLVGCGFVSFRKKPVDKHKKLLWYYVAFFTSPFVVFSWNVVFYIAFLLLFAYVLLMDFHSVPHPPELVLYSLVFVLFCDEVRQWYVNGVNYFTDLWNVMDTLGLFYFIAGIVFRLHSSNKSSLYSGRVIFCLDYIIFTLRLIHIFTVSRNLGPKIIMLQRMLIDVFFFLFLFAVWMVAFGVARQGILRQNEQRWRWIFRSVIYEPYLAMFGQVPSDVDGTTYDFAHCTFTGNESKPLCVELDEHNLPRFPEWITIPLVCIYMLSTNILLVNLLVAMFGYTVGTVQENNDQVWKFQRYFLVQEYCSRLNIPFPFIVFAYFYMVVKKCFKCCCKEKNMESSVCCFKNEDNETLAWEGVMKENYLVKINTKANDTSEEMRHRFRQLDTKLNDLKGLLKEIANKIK
In the case of `CCC(=O)c1sc(-c2cccc(F)c2)nc1O` [Compound 1, 1-[2-(3-fluorophenyl)-4-hydroxy-1,3-thiazol-5-yl]propan-1-one], the IC50 worked out at 32 nM.
Take `CC(=O)c1sc(-c2cccc(F)c2)nc1O` [Compound 4, 1-(2-(3-fluorophenyl)-4-hydroxythiazol-5-yl)ethanone]: the half-maximal inhibitory concentration (IC50) turned out to be 958 nM.
In the case of `CC(C)C(=O)c1sc(-c2cccc(F)c2)nc1O` [Compound 5, 1-[2-(3-fluorophenyl)-4-hydroxy-1,3-thiazol-5-yl]-2-methylpropan-1-one], the concentration for half-maximal inhibition (IC50) was 299 nM.
For `CON(C)C(=O)c1sc(-c2cccs2)nc1O` [Compound 6, 4-hydroxy-N-methoxy-N-methyl-2-(thiophen-2-yl)-1,3-thiazole-5-carboxamide], the IC50 is 156 nM.
On to `CCC(=O)c1sc(-c2cccs2)nc1O` [Compound 7, 1-[4-hydroxy-2-(thiophen-2-yl)-1,3-thiazol-5-yl]propan-1-one], for which the 50% inhibitory concentration (IC50) turned out to be 596 nM.
In the case of `CON(C)C(=O)c1sc(-c2ccccc2C)nc1O` [Compound 8, 4-hydroxy-N-methoxy-N-methyl-2-(2-methylphenyl)-1,3-thiazole-5-carboxamide] it was 86 nM; in that of `CCC(=O)c1sc(-c2ccccc2C)nc1O` [Compound 9, 1-[4-hydroxy-2-(2-methylphenyl)-1,3-thiazol-5-yl]propan-1-one], 411 nM; in that of `CON(C)C(=O)c1sc(-c2ccccc2Br)nc1O` [Compound 10, 2-(2-bromophenyl)-4-hydroxy-N-methoxy-N-methyl-1,3-thiazole-5-carboxamide], 435 nM.
`CCC(=O)c1sc(-c2ccccc2Br)nc1O` [Compound 11, 1-[2-(2-bromophenyl)-4-hydroxy-1,3-thiazol-5-yl]propan-1-one]: the IC50 was found to be 912 nM.
The result for `CCC(=O)c1sc(-c2ccccc2O)nc1O` [Compound 13, 1-[2-(2-hydroxyphenyl)-4-hydroxy-1,3-thiazol-5-yl]propan-1-one] reads 112 nM; that for `CCC(=O)c1sc(-c2cccc(Br)c2)nc1O` [Compound 14, 1-[2-(3-bromophenyl)-4-hydroxy-1,3-thiazol-5-yl]propan-1-one], 1730 nM.
In the case of `CCC(=O)c1sc(-c2ccco2)nc1O` [Compound 15, 1-[2-(furan-2-yl)-4-hydroxy-1,3-thiazol-5-yl]propan-1-one] it was 236 nM; in that of `CCC(=O)c1sc(-c2ccc[nH]2)nc1O` [Compound 16, 1-[4-hydroxy-2-(1H-pyrrol-2-yl)-1,3-thiazol-5-yl]propan-1-one], 123 nM.
In the case of `CCC(=O)c1sc(-c2cccn2C)nc1O` [Compound 17, 1-[4-hydroxy-2-(1-methyl-1H-pyrrol-2-yl)-1,3-thiazol-5-yl]propan-1-one] it was 323 nM; in that of `CCC(=O)c1sc(-c2cncn2C)nc1O` [Compound 18, 1-[4-hydroxy-2-(1-methyl-1H-imidazol-5-yl)-1,3-thiazol-5-yl]propan-1-one], 112 nM; in that of `CCC(=O)c1sc(-c2cnc[nH]2)nc1O` [Compound 19, 1-[4-hydroxy-2-(1H-imidazol-5-yl)-1,3-thiazol-5-yl]propan-1-one], 302 nM.
For `CCC(=O)c1sc(-c2cnn(C)c2)nc1O` [Compound 20, 1-[4-hydroxy-2-(1-methyl-1H-pyrazol-4-yl)-1,3-thiazol-5-yl]propan-1-one], the IC50 was found to be 89 nM.
The result for `CCCC(=O)c1sc(-c2cccs2)nc1O` [Compound 21, 1-[4-hydroxy-2-(thiophen-2-yl)-1,3-thiazol-5-yl]butan-1-one] reads 64 nM; that for `CC(C)CC(=O)c1sc(-c2cccs2)nc1O` [Compound 22, 1-[4-hydroxy-2-(thiophen-2-yl)-1,3-thiazol-5-yl]-3-methylbutan-1-one], 85 nM; that for `CCC(=O)c1sc(-c2ncon2)nc1O` [Compound 23, 1-[4-hydroxy-2-(1,2,4-oxadiazol-3-yl)-1,3-thiazol-5-yl]propan-1-one], 99 nM.
As for `CCC(=O)c1sc(-c2ccno2)nc1O` [Compound 24, 1-[4-hydroxy-2-(1,2-oxazol-5-yl)-1,3-thiazol-5-yl]propan-1-one], the concentration for half-maximal inhibition (IC50) is 123 nM.
For the compound `CCC(=O)c1sc(-c2cccnc2)nc1O` [Compound 25, 1-[4-hydroxy-2-(pyridin-3-yl)-1,3-thiazol-5-yl]propan-1-one], the IC50 amounted to 356 nM.
In the case of `CCC(=O)c1sc(-c2ccncc2)nc1O` [Compound 26, 1-[4-hydroxy-2-(pyridin-4-yl)-1,3-thiazol-5-yl]propan-1-one] it was 453 nM; in that of `CCC(=O)c1sc(-c2ccccn2)nc1O` [Compound 27, 1-[4-hydroxy-2-(pyridin-2-yl)-1,3-thiazol-5-yl]propan-1-one], 145 nM; in that of `CCC(=O)c1sc(-c2cccc(O)c2)nc1O` [Compound 28, 1-[4-hydroxy-2-(3-hydroxyphenyl)-1,3-thiazol-5-yl]propan-1-one], 23 nM.
Take `CCC(=O)c1sc(-c2ccc(O)cc2)nc1O` [Compound 29, 1-[4-hydroxy-2-(4-hydroxyphenyl)-1,3-thiazol-5-yl]propan-1-one]: the half-inhibitory concentration (IC50) is 326 nM.
In the case of `CCC(=O)c1sc(-c2cccc(C)c2)nc1O` [Compound 30, 1-[4-hydroxy-2-(3-methylphenyl)-1,3-thiazol-5-yl]propan-1-one] it was 231 nM; in that of `CCC(=O)c1sc(-c2ccc(C)cc2)nc1O` [Compound 31, 1-[4-hydroxy-2-(4-methylphenyl)-1,3-thiazol-5-yl]propan-1-one], 236 nM.
The result for `CCC(=O)c1sc(-c2cccc(N)c2)nc1O` [Compound 32, 1-[2-(3-aminophenyl)-4-hydroxy-1,3-thiazol-5-yl]propan-1-one] reads 450 nM; that for `CCC(=O)c1sc(-c2ccc(N)cc2)nc1O` [Compound 33, 1-[2-(4-aminophenyl)-4-hydroxy-1,3-thiazol-5-yl]propan-1-one], 632 nM.
The result for `CCC(=O)c1sc(-c2cccc(NC)c2)nc1O` [Compound 34, 1-{4-hydroxy-2-[3-(methylamino)phenyl]-1,3-thiazol-5-yl}propan-1-one] reads 233 nM; that for `CCC(=O)c1sc(-c2ccc(NC)cc2)nc1O` [Compound 35, 1-{4-hydroxy-2-[4-(methylamino)phenyl]-1,3-thiazol-5-yl}propan-1-one], 789 nM; that for `CCC(=O)c1sc(-c2ccc(F)cc2)nc1O` [Compound 36, 1-[2-(4-fluorophenyl)-4-hydroxy-1,3-thiazol-5-yl]propan-1-one], 50 nM.
For `CC(C)CC(=O)c1sc(-c2cccc(F)c2)nc1O` [Compound 38, 1-[2-(3-fluorophenyl)-4-hydroxy-1,3-thiazol-5-yl]-3-methylbutan-1-one], the IC50 is 331 nM.
In the case of `COCC(=O)c1sc(-c2cccc(F)c2)nc1O` [Compound 39, 1-[2-(3-fluorophenyl)-4-hydroxy-1,3-thiazol-5-yl]-2-methoxyethanone] it was 523 nM; in that of `CCC(=S)c1sc(-c2cccc(F)c2)nc1O` [Compound 40, 1-[2-(3-fluorophenyl)-4-hydroxy-1,3-thiazol-5-yl]propane-1-thione], 236 nM; in that of `CON(C)C(=S)c1sc(-c2cccc(F)c2)nc1O` [Compound 41, 2-(3-fluorophenyl)-4-hydroxy-N-methoxy-N-methyl-1,3-thiazole-5-carbothioamide], 388 nM.
As to `CC/C(=N\OC)c1sc(-c2cccc(F)c2)nc1O` [Compound 42, 2-(3-fluorophenyl)-5-[(1E)—N-methoxypropanimidoyl]-1,3-thiazol-4-ol], the half-maximal inhibitory concentration (IC50) is 986 nM.
Take `CCC(=N)c1sc(-c2cccc(F)c2)nc1O` [Compound 43, 2-(3-fluorophenyl)-5-propanimidoyl-1,3-thiazol-4-ol]: the IC50 worked out at 1210 nM.
`CC/C(=N\O)c1sc(-c2cccc(F)c2)nc1O` [Compound 44, 2-(3-fluorophenyl)-5-[(1E)—N-hydroxypropanimidoyl]-1,3-thiazol-4-ol]: the IC50 amounted to 1360 nM.
The result for `O=C(c1sc(-c2cccc(F)c2)nc1O)C1CC1` [Compound 45, cyclopropyl[2-(3-fluorophenyl)-4-hydroxy-1,3-thiazol-5-yl]methanone] reads 287 nM.

For the origin of these results see patent US11046662B2, “2-aryl-4-hydroxy-1,3-thiazole derivatives useful as TRPM8-inhibitors in treatment of neuralgia, pain, COPD and asthma” (DOMPÉ FARMACEUTICI S.P.A., priority 2014, dated 2021).
